# Measurements published in patent publication US6548543B1, “Remedies or preventives containing cyclopentenone compounds as the active ingredient” (Takara Shuzo Co., Ltd., priority 1998, dated 2003).
# Legend:
# NK cells = assay type: in vivo, ddY mice; conditions: mice administered intraperitoneally
# Procedure: ddY mice (female, 7 weeks old) were purchased from Japan SLC and pre-bred for 1 week before using in experiments.
# 1×10^6 Ehrlich ascites carcinoma cells were intraperitoneally inoculated to each mouse. 10 mg/kg of cyclopentenone, 30 mg/kg of GM or 10 mg/kg of dipropionylcyclopentenone was intraperitoneally administered to the mouse on the day after the inoculation. Saline was administered to a control mouse.
# A spleen was taken out from the mouse 10 days after the inoculation with cancer cells, finely minced and suspended in RPMI-1640 medium containing 10% FCS (HyClone) to obtain a single cell suspension. Adhesive cells adhered to a plastic Petri dish were removed from the cell suspension and non-adhesive cells were used as NK cells.
# The NK cells were suspended in RPMI-1640 medium containing 10% FCS at a concentration of 6×10^6/ml. 100 μl/well of the suspension was seeded into a microtiter plate.
# Target cells were prepared as follows. 3700 kBq of ^51Cr (Amersham) was added to 1×10^6 YAC-1 cells (Dainippon Pharmaceutical). The cells were cultured at 37° C. for 1 hour for labeling. The labeled cells were washed twice and then suspended in RPMI-1640 medium containing 10% FCS at a concentration of 2×10^5 cells/ml. […] The radioactivity (experimental value) was measured using an auto gamma counter.
# 100 μl of the culture medium was added to the reaction system in place of the NK cells and the radioactivity was measured in order to measure the radioactivity spontaneously released from the target cells (control value).
# Furthermore, the radioactivity released into the supernatant when 1% Triton (Nacalai Tesque) was added to the reaction system to lyse the 51Cr-labeled YAC-1 cells was measured in order to measure the total radioactivity contained in the reaction system (total radioactivity value).
# The cytotoxicity (%) specifically mediated by the NK cells can be determined according to the following equation.
# Cytotoxicity (%)=[(experimental value−control value)/(total radioactivity value−control value)]×100
# [1] = system: adhesion between vascular endothelial cells and HL-60 cells; assay: Adhesion of HL-60 cells to TNF-α-stimulated vascular endothelial cells; assay type: cell-based, Human; conditions: for Adhesion rate: TNF-α-stimulated endothelial cells; for Suppression of TNF-α-induced increase in adhesion rate (statement): 10^−7 to 10^−4 M, dose-dependent
# Procedure: Human vascular endothelial cells (sold by Sanko Junyaku) suspended in RPMI-1640 medium (Gibco) containing 10% FCS (HyClone) at a concentration of 1×10^5 cells/ml. 100 μl/well of the suspension was seeded into a 96-well microtiter plate.
# 100 U/ml of human recombinant TNF-α (Promega) was added to monolayer of vascular endothelial cells after incubation at 37° C. for 2 days in a 5% CO2 incubator. The plate was incubated 37° C. for 6 hours in a 5% CO2 incubator to prepare vascular endothelial cells stimulated with TNF-α.
# On the other hand, cyclopentenone, GM or dipropionylcyclopentenone at a varying concentration was added to HL-60 cells suspended in RPMI-1640 medium containing 10% FCS at a concentration of 1×10^6 cells/ml. The cells were cultured at 37° C. for 3 hours in a 5% CO2 incubator. After cultivation, 5 μM of 5(-and-6)-carboxyfluorescein diacetate, succinimide ester (Molecular Probe) as a fluorescent agent was added thereto and reacted at 37° C. for 10 minutes. The cells were washed twice with RPMI-1640 medium and suspended in RPMI-1640 medium containing 10% FCS to prepare a suspension of fluorescence-labeled HL-60 cells at a concentration of 1×10^6 cells/ml.
# 100 μl/well of the fluorescence-labeled HL-60 cells were overlaid onto the vascular endothelial cells stimulated with TNF-α. Cyclopentenone, GM or dipropionylcyclopentenone at a varying concentration was added thereto. The plate was incubated at 37° C. for 20 minutes in a 5% CO2 incubator for adhesion reaction between vascular endothelial cells and HL-60 cells.
# After the adhesion reaction, the plate was washed to remove non-adhesive cells. 1% Triton X (Nacalai Tesque) was added thereto to destroy adhesive cells. The fluorescence intensity was measured using filters for 485/22 nm (excitation) and 530/25 nm (emission).
# The adhesion rate which represents the ratio of cells adhered to vascular endothelial cells was determined defining the fluorescence intensity for 1×10^5 fluorescence-labeled cells as 100%.
# [2] = system: spleen lymphocytes stimulated with Ehrlich ascites carcinoma cells; assay: Cancer cell-specific proliferation of spleen lymphocytes from treated tumor-bearing mice; assay type: in vivo, ddY mice; conditions: for Growth of spleen lymphocytes on stimulation with cancer cells (statement): mice administered intraperitoneally
# Procedure: ddY mice (female, 7 weeks old) were purchased from Japan SLC and pre-bred 1 week before using in experiments.
# 1×10^6 Ehrlich ascites carcinoma cells were intraperitoneally inoculated to each mouse. 10 mg/kg of cyclopentene, 30 mg/kg of GM or 10 mg/kg of dipropionylcyclopentene was intraperitoneally administered to the mouse on the day after the inoculation. Saline was administered to a control mouse.
# A spleen was taken out from the mouse 10 days after the inoculation with cancer cells, finely minced and suspended in RPMI-1640 medium (Gibco) containing 10% FCS (HyClone) to obtain a single cell suspension. Adhesive cells in the cell suspension adhered to a plastic Petri dish were removed and non-adhesive cells were used as spleen lymphocytes.
# The spleen lymphocytes were suspended in RPMI-1640 medium containing 10% FCS at a concentration of 2×10^6/ml. 100 μl/well of the suspension was seeded into a microtiter plate.
# Stimulated cells were prepared as follows. Mitomycin C (Kyowa Hakko Kogyo) was added to a concentration of 50 μg/ml to Ehrlich ascites carcinoma cells suspended in RPMI-1640 medium at a concentration of 2×10^6 cells/ml. The cells were treated at 37° C. for 30 minutes, washed twice and then suspended in RPMI-1640 medium containing 10% FCS to prepare stimulated cells at a concentration of 2×10^6 cells/ml. 100 μl of the thus prepared stimulated cells was overlaid onto each well of the plate into which 100 μl/well of the spleen lymphocytes had been added. The plate was incubated at 37° C. for 5 days in a 5% CO2 incubator. 37 kBq of ^3H-thymidine (Daiichi Pure Chemicals) was added to the well to pulse-label the cells on the day before the completion of the cultivation. After cultivation, the cells were harvested on a glass filter to measure the radioactivity.
# topoisomerase II = biological target: T1, topoisomerase II (Homo sapiens, UniProt P11388); assay: Topoisomerase II inhibition, pBR322 DNA relaxation; assay type: biochemical; conditions: 37° C., 30 minutes
# T1 construct: purchased TopoGEN
# Procedure: (1) 2 μl of topoisomerase II (TopoGEN; 2 units/μl), 2 μl of 10-fold concentrated buffer [0.5 M Tris-HCl (pH 8.0), 1.2 M KCl, 0.1 M MgCl2, 2.5 mM adenosine triphosphate, 5 mM dithiothreitol], 2 μl of 0.1% bovine serum albumin (Takara Shuzo), 11 μl of distilled water and 2 μl of distilled water (control) or 2 μl of one of aqueous solutions of dipropionylcyclopentenone, diisobutyrylcyclopentenone, dibenzoylcyclopentenone, dihexanoylcyclopentenone, di-2-hexenoylcyclopentenone, dimethoxyacetylcyclopentenone, dimethylfumarylcyclopentenone or dimethylmaleylcyclopentenone at varying concentrations were mixed together. 1 μl of 0.25 μg/μl pBR322 DNA (Takara Shuzo) was added thereto. The resulting mixture was reacted at 37° C. After reacting for 30 minutes, 2 μl of an aqueous solution containing 1% sodium dodecyl sulfate, 50% glycerol and 0.02% Bromophenol Blue was added thereto to stop the reaction.
# 20 μl of the reaction mixture was applied to 1% agarose gel prepared using agarose L03 (Takara Shuzo) and TAE buffer [40 mM Tris, 5 mM sodium acetate, 1 mm ethylenediaminetetraacetic acid disodium salt (EDTA); adjusted to pH 7.8 using acetic acid] and electrophoresed in TAE buffer. After electrophoresis, the gel was soaked in a 1 μg/ml aqueous ethidium bromide solution. The gel was exposed to ultraviolet rays to visualize the electophoretic pattern of DNA.
# [3] = system: HL-60 (ATCC CCL-240) cells; assay: Viability and apoptosis of HL-60 cells (Trypan Blue, optical microscope); assay type: cell-based; conditions: Homo sapiens, 24 hours, Trypan Blue, read-out: Viability50 (concentration that results in a viability of 50%)
# Procedure: HL-60 (ATCC CCL-240) cells were cultured at 37° C. in RPMI 1640 medium (Bio Whittaker) containing 10% fetal calf serum (FCS; JRH) which had been treated at 56° C. for 30 minutes and suspended in RPMI 1640 medium at a concentration of 2.5×10^5 cells/5 ml.
# 10 μl each of solutions of diisobutyrylcyclopentenone, dimethoxyacetylcyclopentenone, dimethylfumarylcyclopentenone or dimethylmaleylcyclopentenone in 70% ethanol in water diluted to varying concentrations was added to 5 ml of the suspension. The mixtures were incubated at 37° C. for 24 hours in the presence of 5% Co2. 10 μl of aqueous actinomycin D (Sigma) solution (0.5 mg/ml), which is known as a reagent that induces apoptosis, was used in place of the sample and the mixture was incubated under the same conditions for confirmation.
# The cultured cells were examined under an optical microscope.
# Furthermore, a portion of the cells cultured as described above was stained with 0.4% Trypan Blue and examined under an optical microscope. The number of viable cells which were not stained and the number of dead cells which were stained blue were counted. The concentration of each of the samples that results in a viability of 50% (Viability50 μM) was determined.
# T1 sequence (P11388 whole entry): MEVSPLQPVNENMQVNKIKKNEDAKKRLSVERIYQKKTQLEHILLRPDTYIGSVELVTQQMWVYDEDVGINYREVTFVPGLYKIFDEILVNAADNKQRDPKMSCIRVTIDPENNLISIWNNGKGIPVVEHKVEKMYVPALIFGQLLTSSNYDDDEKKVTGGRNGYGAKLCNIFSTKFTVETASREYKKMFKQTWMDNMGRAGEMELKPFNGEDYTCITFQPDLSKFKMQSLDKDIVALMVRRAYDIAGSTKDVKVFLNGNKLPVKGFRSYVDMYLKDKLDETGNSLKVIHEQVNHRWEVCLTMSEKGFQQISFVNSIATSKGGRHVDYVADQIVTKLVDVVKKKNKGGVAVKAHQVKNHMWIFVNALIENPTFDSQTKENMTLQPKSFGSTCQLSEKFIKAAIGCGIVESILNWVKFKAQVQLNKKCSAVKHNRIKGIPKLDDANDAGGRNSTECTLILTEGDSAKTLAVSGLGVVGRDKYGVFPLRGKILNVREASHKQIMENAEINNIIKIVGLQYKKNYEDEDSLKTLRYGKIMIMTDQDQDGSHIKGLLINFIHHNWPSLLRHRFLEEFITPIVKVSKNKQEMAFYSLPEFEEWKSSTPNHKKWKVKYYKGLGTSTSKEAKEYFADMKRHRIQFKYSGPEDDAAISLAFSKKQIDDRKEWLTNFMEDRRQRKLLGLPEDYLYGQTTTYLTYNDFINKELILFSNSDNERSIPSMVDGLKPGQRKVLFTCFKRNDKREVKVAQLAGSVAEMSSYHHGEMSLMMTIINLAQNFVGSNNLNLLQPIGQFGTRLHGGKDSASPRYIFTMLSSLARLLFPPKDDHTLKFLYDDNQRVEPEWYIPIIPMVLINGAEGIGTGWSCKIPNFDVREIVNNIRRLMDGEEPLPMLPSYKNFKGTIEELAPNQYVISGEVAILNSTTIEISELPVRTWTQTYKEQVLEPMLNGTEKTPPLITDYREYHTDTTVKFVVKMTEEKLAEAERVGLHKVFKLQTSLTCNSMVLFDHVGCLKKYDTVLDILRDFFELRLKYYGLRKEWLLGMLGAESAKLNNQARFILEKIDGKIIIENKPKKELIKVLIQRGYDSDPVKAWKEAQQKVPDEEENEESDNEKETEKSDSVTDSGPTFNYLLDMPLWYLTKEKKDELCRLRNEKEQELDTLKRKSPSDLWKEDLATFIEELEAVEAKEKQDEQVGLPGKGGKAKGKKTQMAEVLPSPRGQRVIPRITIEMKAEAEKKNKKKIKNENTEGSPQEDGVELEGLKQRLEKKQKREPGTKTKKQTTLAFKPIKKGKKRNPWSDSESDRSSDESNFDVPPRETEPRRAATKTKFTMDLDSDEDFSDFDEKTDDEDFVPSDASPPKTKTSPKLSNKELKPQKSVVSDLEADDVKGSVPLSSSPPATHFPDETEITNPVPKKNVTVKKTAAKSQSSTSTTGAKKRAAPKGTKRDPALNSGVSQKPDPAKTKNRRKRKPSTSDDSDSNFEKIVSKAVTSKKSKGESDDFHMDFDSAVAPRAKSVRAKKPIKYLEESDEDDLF
Concentration at which change of DNA from superhelical type to relaxed type was partially or completely inhibited (topoisomerase II),IC50 [3],SMILES,Activation of NK cells (statement) (NK cells),Adhesion rate ([1]; 0.1 μM),Adhesion rate ([1]; 1 μM),Adhesion rate ([1]; 10 μM),Adhesion rate ([1]; 100 μM),Suppression of TNF-α-induced increase in adhesion rate (statement) [1],"3H-thymidine uptake ([2]; 10 mg/kg intraperitoneal, no stimulation with cancer cell)","3H-thymidine uptake ([2]; 10 mg/kg intraperitoneal, stimulation with cancer cell)",Growth of spleen lymphocytes on stimulation with cancer cells (statement) [2],"3H-thymidine uptake ([2]; 30 mg/kg intraperitoneal, no stimulation with cancer cell)","3H-thymidine uptake ([2]; 30 mg/kg intraperitoneal, stimulation with cancer cell)"
–,–,"O=C1C=CC(O)C1O (centres unmarked) [Cyclopentenone, 4,5-dihydroxy-2-cyclopenten-1-one]",Activation of NK cells was observed,51.7%,46.0%,22.2%,17.9%,suppressed,9680 CPM,25756 CPM,significantly enhanced,–,–
–,–,"N[C@@H](CCC(=O)N[C@@H](CSC1C=C(O)C(=O)C1)C(=O)NCC(=O)O)C(=O)O (some centres unmarked) [GM, 2-hydroxy-4-glutathion-S-yl-2-cyclopenten-1-one]",Activation of NK cells was observed,53.9%,48.3%,23.9%,16.3%,suppressed,–,–,significantly enhanced,8700 CPM,36291 CPM
≥ 5 µM,3.4 µM,"COC(=O)/C=C\C(=O)OC1C=CC(=O)C1OC(=O)CCC(=O)OC (centres unmarked) [Dimethylmaleylcyclopentenone, dimethylmaleylcyclopentenone]",–,–,–,–,–,–,–,–,–,–,–
